These results are taken from ChEMBL document CHEMBL1201862, “PubChem BioAssay data set” (2004).

Some test systems named below: RXF 393; Malme-3M; HCT-15; MDA-MB-231; NCI-H23; CAKI-1; KM12; SF-268; PC-3; HT-29; LOX IMVI; SNB-19; OVCAR-4; Hs-578T; UO-31; M14; NCI-H460; SK-MEL-2; NCI-H522; SR.
Experiment in all cases: DTP human tumour cell line panel, 48 h

SMILES strings stand for the structures.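 96-well plates; 48 h exposure; 5 concentrations. Endpoints by linear interpolation between flanking doses. Not reached: highest tested concentration assigned. GI50 marks 50% less growth.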 The source made the active and inactive calls. Cut-off read from the data, not from the text of the source: active = GI50 up to about 1.1 µM and inactive = higher. Where a SMILES comes first, the peptide text is derived from it. The star is where a group is joined. Boc = CC(C)(C)OC(=O)* Bounds are passed on as bounds.

Consider `Cc1ccc(CC(=O)Nc2ccc(NC(=O)/C=C/NC(=O)/C=C/c3ccc(-c4ccccc4)cc3)cc2C(=O)c2ccccc2)cc1`, for which the GI50 (usually the concentration that inhibits growth by half) with RXF 393 was 1.46 µM (inactive); in the assay on Malme-3M, 3.39 µM (inactive); with HCT-15, 2.7 µM; in the assay with MDA-MB-231, 1.87 µM (inactive); in the assay with NCI-H23 it was 1.85 µM (inactive); in the assay on CAKI-1 it was 3.29 µM (inactive). Moreover, the GI50 is 2.93 µM (inactive) in the assay with KM12; 2.62 µM (inactive) with SF-268; 1.47 µM (inactive) with PC-3; 5.06 µM (inactive) in the assay with HT-29; 2.03 µM (inactive) in the assay on LOX IMVI; 3.05 µM (inactive) in the assay on SNB-19. In addition, the GI50 was 1.48 µM (inactive) in the assay with OVCAR-4; 1.73 µM (inactive) in the assay with Hs-578T; 3.67 µM (inactive) in the assay on UO-31; 2.56 µM (inactive) in the assay with M14; 1.87 µM (inactive) with NCI-H460; 1.89 µM (inactive) in the assay with SK-MEL-2.

As for `O=C(/C=C1\N=C(c2ccccc2)N(c2ccc3c(c2)Sc2cc(N4C(=O)/C(=C/C(=O)/C=C/c5ccccc5)N=C4c4ccccc4)ccc2N3)C1=O)/C=C/c1ccccc1`, the GI50 in the assay with RXF 393 is 27.3 µM (inactive); in the assay on Malme-3M, 26.1 µM (inactive); in the assay on HCT-15 it was more than 100 µM; in the assay on MDA-MB-231, 38 µM (inactive); in the assay on NCI-H23, 50.4 µM (inactive); with CAKI-1, 42.6 µM (inactive). The GI50 in the assay on KM12 is > 100 µM (inactive); with SF-268, 69.5 µM (inactive); with NCI-H522 it was 20.9 µM (inactive); in the assay with PC-3 it was 19.5 µM (inactive); in the assay with HT-29, > 100 µM (inactive); in the assay with LOX IMVI, 30.5 µM (inactive). The GI50 in the assay on SNB-19 was 29.7 µM (inactive); in the assay with OVCAR-4 it was 20.8 µM (inactive); in the assay on Hs-578T, 33.2 µM (inactive); with UO-31, 81.1 µM (inactive); in the assay with M14 it was 64 µM (inactive); in the assay on NCI-H460, 58.7 µM (inactive). The GI50 with SK-MEL-2 is 18.4 µM (inactive).

Consider `CN1CCc2c(sc3ncn(C)c(=N)c23)C1`, for which the GI50 in the assay with RXF 393 is > 100 µM (inactive); with Malme-3M, > 100 µM (inactive); in the assay on HCT-15, more than 100 µM; with MDA-MB-231, > 100 µM (inactive); with NCI-H23, > 100 µM (inactive); with CAKI-1, > 100 µM (inactive). Moreover, the GI50 in the assay with KM12, with SF-268, in the assay with NCI-H522, in the assay with PC-3, in the assay on HT-29 and in the assay on LOX IMVI was > 100 µM (inactive) each time. In addition, the GI50 in the assay with SNB-19, in the assay with OVCAR-4, with Hs-578T, in the assay with M14, in the assay with NCI-H460 and with SK-MEL-2 was > 100 µM (inactive) in each case.

For `OCC1OC(n2cnc3c(SCc4ccccc4)ncnc32)C(O)C1O` (stereo not given), the GI50 in the assay with RXF 393 is 20.2 µM (inactive); in the assay on Malme-3M, > 100 µM (inactive); in the assay on HCT-15, 3.25 µM; with MDA-MB-231 it was 5.48 µM (inactive); in the assay with NCI-H23, 4.86 µM (inactive); in the assay with CAKI-1, 6.53 µM (inactive). Besides, the GI50 is > 100 µM (inactive) with KM12; 21.2 µM (inactive) with SF-268; 17.5 µM (inactive) in the assay on NCI-H522; 4.94 µM (inactive) in the assay on PC-3; 5.52 µM (inactive) in the assay with HT-29; 2.13 µM (inactive) in the assay with LOX IMVI. Also, the GI50 is > 100 µM (inactive) with SNB-19; 11.8 µM (inactive) with OVCAR-4; 2.9 µM (inactive) in the assay on SR; 23 µM (inactive) with UO-31; 99.3 µM (inactive) in the assay with M14; > 44.7 µM (inactive) in the assay on NCI-H460. Moreover, the GI50 in the assay on SK-MEL-2 is 96.8 µM (inactive).

As to `c1ccc(C2(c3cc4ccccc4[nH]3)OCCO2)cc1`, the GI50 is > 100 µM (inactive) in the assay with RXF 393; 41.6 µM in the assay with HCT-15; > 100 µM (inactive) in the assay with MDA-MB-231; > 100 µM (inactive) in the assay on NCI-H23; 86.1 µM (inactive) with CAKI-1; 37.8 µM (inactive) with KM12. Also, the GI50 with SF-268 is 47 µM (inactive); in the assay on PC-3, 36.6 µM (inactive); with HT-29 it was 26.1 µM (inactive); in the assay on LOX IMVI it was 38 µM (inactive); in the assay with SNB-19, > 100 µM (inactive); in the assay on OVCAR-4, 32.2 µM (inactive). For the same molecule, the GI50 in the assay with SR is 22.4 µM (inactive); in the assay with UO-31, 42.6 µM (inactive); with M14, 33.3 µM (inactive); in the assay with NCI-H460, 36.9 µM (inactive); in the assay on SK-MEL-2 it was 42.6 µM (inactive).

For the molecule `Cc1cnc2[nH]c(-c3cccc(Cl)c3)cc(=O)c2c1`, the concentration for 50% growth inhibition (GI50) in the assay on RXF 393 was 0.0367 µM (active); with Malme-3M, 0.048 µM (active); in the assay on HCT-15, 0.117 µM; with MDA-MB-231, 0.0569 µM (active); in the assay on NCI-H23 it was 0.375 µM (active); in the assay with CAKI-1 it was 0.0495 µM (active). Also, the GI50 with KM12 is 0.102 µM (active); with SF-268, 0.0796 µM (active); with NCI-H522, 0.0294 µM (active); in the assay on HT-29 it was 0.0392 µM (active); in the assay on LOX IMVI, 0.0438 µM (active); with SNB-19 it was 0.0769 µM (active). Besides, the GI50 in the assay on OVCAR-4 was > 100 µM (inactive); in the assay with SR it was 0.0345 µM (active); in the assay on Hs-578T it was 0.0266 µM (active); in the assay with UO-31 it was 1.7 µM (inactive); in the assay with M14, 0.0406 µM (active); in the assay with NCI-H460 it was 0.0378 µM (active). Besides, the GI50 with SK-MEL-2 is 0.0889 µM (active).

As to `COC(=O)C(Cc1c[nH]c2ccccc12)NC(=O)C(Cc1c[nH]c2ccccc12)NC(=O)C(Cc1c[nH]c2ccccc12)NC(=O)C(Cc1c[nH]c2ccccc12)NC(=O)C(Cc1c[nH]c2ccccc12)NC(=O)C(Cc1c[nH]c2ccccc12)NC(=O)C(Cc1c[nH]c2ccccc12)NC(=O)C(Cc1c[nH]c2ccccc12)NC(=O)OC(C)(C)C` (stereo not given) (Boc-WWWWWWWW-OMe; configuration not given here), the GI50 was 53.2 µM (inactive) with Malme-3M; more than 100 µM in the assay with HCT-15; > 100 µM (inactive) with MDA-MB-231; 29 µM (inactive) in the assay on NCI-H23; > 100 µM (inactive) with CAKI-1; > 100 µM (inactive) in the assay with SF-268. Besides, the GI50 is 17.4 µM (inactive) with NCI-H522; 65.5 µM (inactive) in the assay with PC-3; > 100 µM (inactive) in the assay on HT-29; 63.5 µM (inactive) with LOX IMVI; 46.2 µM (inactive) with SNB-19; > 100 µM (inactive) with OVCAR-4. Besides, the GI50 with SR is 59.7 µM (inactive); with UO-31, 53.7 µM (inactive); with M14, 12.6 µM (inactive); in the assay on NCI-H460, 67.6 µM (inactive); with SK-MEL-2 it was 33.6 µM (inactive).

On to `COC(=O)C(C(=O)C(=O)Nc1ccc(C)cc1)c1nc2ccc([N+](=O)[O-])cc2nc1O` (stereo not given), for which the GI50 was > 100 µM (inactive) in the assay with RXF 393; > 100 µM (inactive) in the assay with Malme-3M; more than 100 µM with HCT-15; > 100 µM (inactive) with NCI-H23; > 100 µM (inactive) in the assay on CAKI-1; > 100 µM (inactive) with KM12. Also, the GI50 is > 100 µM (inactive) in the assay on SF-268; 6.93 µM (inactive) in the assay on NCI-H522; > 100 µM (inactive) in the assay with HT-29; > 100 µM (inactive) in the assay on LOX IMVI; > 100 µM (inactive) in the assay with SNB-19; > 100 µM (inactive) in the assay with OVCAR-4. Besides, the GI50 with SR is > 100 µM (inactive); with UO-31 it was 66.1 µM (inactive); with M14 it was > 100 µM (inactive); with NCI-H460, > 100 µM (inactive); with SK-MEL-2, > 100 µM (inactive).

Consider `Cc1cc(NCCCCCCNc2cc(C)nc3ccc(Cl)cc23)c2cc(Cl)ccc2n1`, for which the GI50 is 16.1 µM (inactive) with RXF 393; 28.1 µM (inactive) in the assay on Malme-3M; 18 µM in the assay with HCT-15; 15 µM (inactive) in the assay with NCI-H23; 33 µM (inactive) with CAKI-1; 17.2 µM (inactive) with KM12. The GI50 with SF-268 is 14.7 µM (inactive); in the assay on NCI-H522 it was 17 µM (inactive); with HT-29, 15.2 µM (inactive); in the assay on LOX IMVI, 14.9 µM (inactive); in the assay with SNB-19, 25.9 µM (inactive); with OVCAR-4 it was 20 µM (inactive). Further, the GI50 in the assay with SR was 2.09 µM (inactive); in the assay with UO-31 it was 23.5 µM (inactive); in the assay on M14, > 100 µM (inactive); in the assay with NCI-H460, 14.8 µM (inactive); with SK-MEL-2 it was 26.2 µM (inactive).

Turning to `O=c1c(C(c2ccc(O)cc2)c2c(O)oc3ccccc3c2=O)c(O)oc2ccccc12`, the GI50 with Malme-3M was 86.9 µM (inactive); in the assay with HCT-15, 36.6 µM; in the assay with MDA-MB-231, 31.6 µM (inactive); with NCI-H23 it was > 100 µM (inactive); in the assay on CAKI-1, 85.9 µM (inactive); in the assay with KM12, > 100 µM (inactive). Besides, the GI50 was 16.2 µM (inactive) in the assay with SF-268; 22.5 µM (inactive) in the assay with NCI-H522; > 100 µM (inactive) with PC-3; 97.1 µM (inactive) in the assay on HT-29; 45.2 µM (inactive) in the assay with LOX IMVI; 71.8 µM (inactive) with SNB-19. In addition, the GI50 in the assay on OVCAR-4, in the assay with Hs-578T, in the assay on UO-31, in the assay on NCI-H460 and with SK-MEL-2 was > 100 µM (inactive) throughout.

Regarding `N#CCc1ccc(C(C#N)/C(CCCC(=O)Nc2cccc([N+](=O)[O-])c2)=N/NC(N)=S)cc1` (stereo not given), the GI50 was > 100 µM (inactive) in the assay with RXF 393; > 100 µM (inactive) in the assay with Malme-3M; more than 100 µM in the assay with HCT-15; > 100 µM (inactive) in the assay with NCI-H23; > 100 µM (inactive) in the assay with CAKI-1; > 100 µM (inactive) in the assay on KM12. Also, the GI50 with SF-268 was > 100 µM (inactive); in the assay on NCI-H522, 27.9 µM (inactive); in the assay with HT-29 it was > 100 µM (inactive); in the assay on LOX IMVI, 63.1 µM (inactive); in the assay with SNB-19 it was 76 µM (inactive); with OVCAR-4, > 100 µM (inactive). In addition, the GI50 in the assay on SR, in the assay on UO-31, in the assay on M14, in the assay with NCI-H460 and in the assay with SK-MEL-2 was > 100 µM (inactive) throughout.
